The target in test [1] is T1, FGFR2 (Homo sapiens, UniProt P21802).
T1 construct: biochemical assays using purified intracellular domains of the respective isoforms; purchased Carna Bioscience 08-134
Description: FGFR wild type enzyme assay (HTRF KinEASE-TK). Particulars: ATP 2 uM. The format is biochemical. The procedure: (§1) Activity against FGFR wild type and mutant enzymes were determined in biochemical assays using purified intracellular domains of the respective isoforms using HTRF KinEASE-TK assay technology from CisBio, now PerkinElmer. (Catalogue number 62TK0PEC). Briefly test compounds were tested in 11 point 1:3 serial dilutions, typical final concentration range from 10,000 nM to 0.17 nM. Test compounds were dissolved in DMSO and added to assay plates using acoustic transfer. Enzyme was pre-incubated with test compound for 30 minutes and the assay was initiated by addition of ATP and TK-peptide substrate. After 60 minutes at room temperature the reaction was quenched with detection reagent and incubated for an additional 60 minutes at room temperature. The plates were read using a multimode reader and the emission ratio of 665 nm to 615 nm was determined. This ratio was converted to percent of control (POC). [1-(high control-sample signal)/(high control-low control)]*100. Wells without compound were used to determine high control values and wells without enzyme were used to determine low control values. The POC values were fit using a four-parameter logistic model and the value where the fit curve was equal to 50 POC was reported as the IC50 using the Signals Vitro Vivo software package (PerkinElmer). Final assay conditions were: 50 mM HEPES pH7.5, 10 mM MgCl2, 1 mM EDTA, 0.01% Brij-35, 2 mM MnCl2, 1 mM DTT, and 0.5 uM TK-peptide. The enzyme source, catalogue number, final enzyme concentration, and final ATP concentration can be found in the tables 1-2 below.

Test [2] addresses FGFR2-WT (Homo sapiens, UniProt P21802). The experiment in a line: Phosphorylated FGFR2-WT (pFGFR2-WT) cell assay, KATOIII cells. The format is cell-based. Particulars: 1 hour incubation, phospho FGFR2 HTRF. The procedure:
KATOIII cells were grown in the appropriate growth medium, IMDM supplemented with 20% fetal bovine serum. Cells were seeded into a 384-well at 1×10^5 cells/25 μL/well. Cells were treated with compound using three-fold serial dilutions at final concentrations ranging from 10 μM to 0.5 nM. Compound was incubated on cells for 1 hour at 37° C., 5% CO2.
Following the 1-hour incubation with compounds, cell lysates were prepared and phospho FGFR2 was measured using the HTRF Phospho-FGFR2 (TYR653/654) Detection Kits (CisBio, cat #64FGFR2Y6PEG). 8 μL of cell lysis buffer (4×) supplied with 1× Phospho and Total protein blocking reagent (CisBio, cat #64FGFR2Y6PEG, CisBio, cat #64KB1AAC) was then added to the wells. Cells were incubated with lysis buffer for 40 minutes at 4° C. under shaking conditions. Plates were centrifuged at 1500 rpm for 3 min and then 16 μL of cell lysate was transferred from the cell-culture plate to a small volume detection plate with the added premixed antibody solutions (4 μL) (CisBio, cat #64FGFR2Y6PEG). Plates were centrifuged at 1000 rpm for 1 min then incubated at 25° C. for 120 min, then overnight at 4° C. Plates were read on the En Vision multimode plate reader via HTRF dual wavelength detection. One hundred percent of control (POC) was determined using DMSO treated samples, and 0 POC was determined using the top concentration of a control compound. A 4-parameter logistic curve was fit to the POC values as a function of compound concentration to determine the IC50 value.
A general note: In TR-FRET formats the signal depends on donor and acceptor labels being close together.

The target of test [3] is T2, FGFR2 N549H (Homo sapiens, UniProt P21802, N549H).
T2 construct: biochemical assays using purified intracellular domains of the respective isoforms; purchased Carna Bioscience 08-532
The experiment in a line: FGFR mutant enzyme assay (HTRF KinEASE-TK). The format is biochemical. Particulars: ATP 0.9 uM. The procedure:
as §1

Test [4] concerns the target T3, FGFR2 V564F (Homo sapiens, UniProt P21802, V564F).
T3 construct: biochemical assays using purified intracellular domains of the respective isoforms; purchased SignalChem Biotech F05-12FG
Description: FGFR mutant enzyme assay (HTRF KinEASE-TK). Conditions: ATP 1.5 uM. The format is biochemical. The protocol:
as §1

Test [5] has as its target T4, FGFR2 V564I (Homo sapiens, UniProt P21802, V564I).
T4 construct: biochemical assays using purified intracellular domains of the respective isoforms; purchased Carna Bioscience 08-546
The experiment in a line: FGFR mutant enzyme assay (HTRF KinEASE-TK). The format is biochemical. Conditions: ATP 0.4 uM. The procedure:
as §1

[6] abbreviates: compound table after the examples, read-out: Enz FGFR2.

Where two headings read alike, the source gives them in different places.

T3 sequence (P21802 399-821 V564F limits assumed): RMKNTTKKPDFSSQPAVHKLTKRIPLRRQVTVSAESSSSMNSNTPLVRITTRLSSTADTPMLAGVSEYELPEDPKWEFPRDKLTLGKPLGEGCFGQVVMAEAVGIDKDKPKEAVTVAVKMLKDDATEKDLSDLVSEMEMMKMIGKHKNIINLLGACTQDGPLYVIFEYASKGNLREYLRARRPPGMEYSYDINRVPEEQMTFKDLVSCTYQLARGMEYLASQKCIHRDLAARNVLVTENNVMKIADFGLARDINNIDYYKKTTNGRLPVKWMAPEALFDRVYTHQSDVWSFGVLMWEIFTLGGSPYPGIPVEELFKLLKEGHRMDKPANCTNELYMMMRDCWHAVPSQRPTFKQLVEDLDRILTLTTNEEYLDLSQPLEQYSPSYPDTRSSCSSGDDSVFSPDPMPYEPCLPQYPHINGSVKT
T2 sequence (P21802 399-821 N549H limits assumed): as the sequence (P21802 399-821 V564F limits assumed) above, with N151H, F166V counted along it
T1 sequence (P21802 399-821 limits assumed): as the sequence (P21802 399-821 V564F limits assumed) above, with F166V counted along it
T4 sequence (P21802 399-821 V564I limits assumed): as the sequence (P21802 399-821 V564F limits assumed) above, with F166I counted along it
Chain of FGFR2-WT (P21802 430-767 limits assumed): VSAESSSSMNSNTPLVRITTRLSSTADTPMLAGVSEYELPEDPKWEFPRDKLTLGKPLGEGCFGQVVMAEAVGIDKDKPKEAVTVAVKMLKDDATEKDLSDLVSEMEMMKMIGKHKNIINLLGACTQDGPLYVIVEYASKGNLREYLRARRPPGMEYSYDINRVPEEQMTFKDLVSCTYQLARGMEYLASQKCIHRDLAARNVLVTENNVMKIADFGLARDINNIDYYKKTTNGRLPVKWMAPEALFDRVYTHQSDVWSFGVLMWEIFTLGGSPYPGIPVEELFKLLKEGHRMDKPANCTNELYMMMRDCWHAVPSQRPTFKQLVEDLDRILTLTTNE

Regarding `C[C@@H]1CN(c2ccc(-c3cc(O[C@H](C)c4ccc(F)cn4)c4c(C#N)cnn4c3)cn2)C[C@H](C)O1` [Compound 16, 6-(6-((2S,6R)-2,6-dimethylmorpholino)pyridin-3-yl)-4-((R)-1-(5-fluoropyridin-2-yl)ethoxy)pyrazolo[1,5-a]pyridine-3-carbonitrile], the IC50 in test [1] (Table 3, read-out: FGFR2 Enz) was 0.5 nM; in test [1] (setting [6]) it was 0.5 nM; in test [2] it was 8 nM; in test [3], 0.3 nM; in test [4] it was 0.8 nM; in test [5], 1 nM.

Consider `Cc1c(-c2cc(O[C@H](C)c3ccc(F)cn3)c3c(C#N)cnn3c2)cnn1[C@H]1CCCN(C(=O)C(C)(C)O)C1` [Compound 17, 4-((R)-1-(5-fluoropyridin-2-yl)ethoxy)-6-(1-((S)-1-(2-hydroxy-2-methylpropanoyl)piperidin-3-yl)-5-methyl-1H-pyrazol-4-yl)pyrazolo[1,5-a]pyridine-3-carbonitrile], for which the IC50 was 0.6 nM in test [1] (Table 3, read-out: FGFR2 Enz); 0.6 nM in test [1] (setting [6]); 3.4 nM in test [2]; 0.5 nM in test [3]; 1 nM in test [4]; 1.7 nM in test [5].

Consider `Cc1c(-c2cc(O[C@H](C)c3ccc(F)cn3)c3c(C#N)cnn3c2)cnn1[C@H]1CCCN(C(=O)[C@H](C)O)C1` [Compound 18, 4-((R)-1-(5-fluoropyridin-2-yl)ethoxy)-6-(1-((S)-1-((S)-2-hydroxypropanoyl)piperidin-3-yl)-5-methyl-1H-pyrazol-4-yl)pyrazolo[1,5-a]pyridine-3-carbonitrile], for which the IC50 was 0.5 nM in test [1] (Table 3, read-out: FGFR2 Enz); 0.6 nM in test [1] (setting [6]); 4 nM in test [2]; 0.5 nM in test [3]; 1 nM in test [4]; 2 nM in test [5].

In the case of `C[C@H](O)C(=O)N1CCC(n2cc(-c3cc(O[C@H](C)c4ccc(F)cn4)c4c(C#N)cnn4c3)cn2)CC1` [Compound 19, 4-((R)-1-(5-fluoropyridin-2-yl)ethoxy)-6-(1-(1-((S)-2-hydroxypropanoyl)piperidin-4-yl)-1H-pyrazol-4-yl)pyrazolo[1,5-a]pyridine-3-carbonitrile], the IC50 stood at 0.15 nM in test [1] (Table 3, read-out: FGFR2 Enz); 0.15 nM in test [1] (setting [6]); 1.25 nM in test [2]; 0.1 nM in test [3]; 0.3 nM in test [4]; 0.4 nM in test [5].

As to `Cc1c(-c2cc(O[C@H](C)c3ccc(F)cn3)c3c(C#N)cnn3c2)cnn1C` [Compound 21, 6(R)-6-(1,5-dimethyl-1H-pyrazol-4-yl)-4-(1-(5-fluoropyridin-2-yl)ethoxy)pyrazolo[1,5-a]pyridine-3-carbonitrile], the IC50 was 1.7 nM in test [1] (Table 3, read-out: FGFR2 Enz); 1.7 nM in test [1] (setting [6]); 24 nM in test [2]; 3 nM in test [3]; 6 nM in test [4]; 11 nM in test [5].

As for `Cc1c(-c2cc(O[C@H](C)c3ccc(F)cn3)c3c(C#N)cnn3c2)cnn1[C@H]1CC[C@](C)(O)CC1` [Compound 22, 4-((R)-1-(5-fluoropyridin-2-yl)ethoxy)-6-(1-((1r,4R)-4-hydroxy-4-methylcyclohexyl)-5-methyl-1H-pyrazol-4-yl)pyrazolo[1,5-a]pyridine-3-carbonitrile], the IC50 in test [1] (Table 3, read-out: FGFR2 Enz) worked out at 0.3 nM; in test [1] (setting [6]), 0.3 nM; in test [2] it was 2.7 nM; in test [3], 0.4 nM; in test [4], 1 nM; in test [5], 1.4 nM.

Take `Cc1c(-c2cc(O[C@H](C)c3ccc(F)cn3)c3c(C#N)cnn3c2)cnn1[C@H]1CC[C@@](C)(O)CC1` [Compound 23, 4-((R)-1-(5-fluoropyridin-2-yl)ethoxy)-6-(1-((1s,4S)-4-hydroxy-4-methylcyclohexyl)-5-methyl-1H-pyrazol-4-yl)pyrazolo[1,5-a]pyridine-3-carbonitrile]: the IC50 came out at 0.4 nM in test [1] (Table 3, read-out: FGFR2 Enz); 0.4 nM in test [1] (setting [6]); 4 nM in test [2]; 0.6 nM in test [3]; 1 nM in test [4]; 2 nM in test [5].

On to `C[C@@H](Oc1cc(-c2ccc(N3CCN(C)[C@@H](CO)C3)nc2)cn2ncc(C#N)c12)c1ccc(F)cn1` [Compound 24, 4-((R)-1-(5-fluoropyridin-2-yl)ethoxy)-6-(6-((R)-3-(hydroxymethyl)-4-methylpiperazin-1-yl)pyridin-3-yl)pyrazolo[1,5-a]pyridine-3-carbonitrile], for which the IC50 in test [1] (Table 3, read-out: FGFR2 Enz) came out at 0.3 nM; in test [1] (setting [6]) it was 0.3 nM; in test [2], 3 nM; in test [3] it was 0.3 nM; in test [4] it was 1 nM; in test [5], 1 nM.

Take `C[C@@H](Oc1cc(-c2ccc(N3CC[C@@H](O)[C@@H](O)C3)nc2)cn2ncc(C#N)c12)c1ccc(F)cn1` [Compound 25, 6-(6-((3S,4R)-3,4-dihydroxypiperidin-1-yl)pyridin-3-yl)-4-((R)-1-(5-fluoropyridin-2-yl)ethoxy)pyrazolo[1,5-a]pyridine-3-carbonitrile]: the IC50 in test [1] (Table 3, read-out: FGFR2 Enz) was determined as 0.3 nM; in test [1] (setting [6]), 0.3 nM; in test [2], 3 nM; in test [3], 0.25 nM; in test [4], 0.7 nM; in test [5], 1 nM.

Consider `C[C@@H](Oc1cc(-c2ccc(N3CC[C@H](O)[C@H](O)C3)nc2)cn2ncc(C#N)c12)c1ccc(F)cn1` [Compound 26, 6-(6-((3R,4S)-3,4-dihydroxypiperidin-1-yl)pyridin-3-yl)-4-((R)-1-(5-fluoropyridin-2-yl)ethoxy)pyrazolo[1,5-a]pyridine-3-carbonitrile], for which the IC50 was 0.5 nM in test [1] (Table 3, read-out: FGFR2 Enz); 0.5 nM in test [1] (setting [6]); 4 nM in test [2]; 0.3 nM in test [3]; 1 nM in test [4]; 1 nM in test [5].

Regarding `Cc1c(-c2cc(O[C@H](C)c3ccc(F)cn3)c3c(C#N)cnn3c2)cnn1C[C@H](O)CO` [Compound 27, 6-(1-((S)-2,3-dihydroxypropyl)-5-methyl-1H-pyrazol-4-yl)-4-((R)-1-(5-fluoropyridin-2-yl)ethoxy)pyrazolo[1,5-a]pyridine-3-carbonitrile], the IC50 in test [1] (Table 3, read-out: FGFR2 Enz) was determined as 3 nM; in test [1] (setting [6]) it was 3 nM; in test [2], 23 nM; in test [3] it was 5 nM; in test [4], 11 nM; in test [5], 17 nM.

In the case of `Cc1nn(C[C@H](O)CO)cc1-c1cc(O[C@H](C)c2ccc(F)cn2)c2c(C#N)cnn2c1` [Compound 28, 6-(1-((S)-2,3-dihydroxypropyl)-3-methyl-1H-pyrazol-4-yl)-4-((R)-1-(5-fluoropyridin-2-yl)ethoxy)pyrazolo[1,5-a]pyridine-3-carbonitrile], the IC50 in test [1] (Table 3, read-out: FGFR2 Enz) was determined as 3 nM; in test [1] (setting [6]), 3 nM; in test [2] it was 17 nM; in test [3], 5 nM; in test [4], 10 nM; in test [5] it was 12 nM.

As for `C[C@@H](Oc1cc(-c2cnn([C@H]3CCCNC3)c2N)cn2ncc(C#N)c12)c1ccc(F)cn1` [Compound 29, 6-(5-amino-1-((S)-piperidin-3-yl)-1H-pyrazol-4-yl)-4-((R)-1-(5-fluoropyridin-2-yl)ethoxy)pyrazolo[1,5-a]pyridine-3-carbonitrile], the IC50 was 0.3 nM in test [1] (Table 3, read-out: FGFR2 Enz); 0.3 nM in test [1] (setting [6]); 4 nM in test [2]; 0.6 nM in test [3]; 1.4 nM in test [4]; 1.5 nM in test [5].

Values taken from patent US12351581B2, “Compounds for FGFR inhibition” (Cogent Biosciences, Inc., priority 2023, dated 2025).
